# Measured values reported in patent US20260053723A1, “PLAQUE DISCLOSING COMPOSITION” (AIOBIO CO, LTD., priority 2020, published 2026).
# Tests used:
# [1] = Evaluation of fluorescence intensity of RPS (Qraycam Pro images, fluorescence spectrometer); assay type: physicochemical
# Description: (§1) Sterile distilled water (DW, (1)), gargle (GG, Soom Mouthwash, (2)), saliva (S (F-X), (3)) and filtered saliva (S(F-O), (4)) 100 mg/ml RPS stock formulation (plates were prepared after preparation by diluting at concentrations of 100 mg/mL, 50 mg/mL, 25 mg/mL, 12.5 mg/mL, 6.25 mg/ml, 3.12 mg/mL, 1.5 mg/mL, 0.78 mg/mL, 0.39 mg/mL, 0.19 mg/mL, and 0.1 mg/mL.
# Each plate prepared was photographed with the Qraycam Pro (AIOBIO, Seoul, Korea) to obtain white light and blue light images. Then, fluorescence intensity was measured using a fluorescence spectrometer (Varioskan, excitation=405 nm/emission=520 nm).
# [2] = Highest concentration at which RPS was completely dissolved; assay type: physicochemical
# Description: as §1
# A plaque staining agent, 2-tone (2T), used in clinical practice was diluted to a concentration of 10% and set as a control group. As an experimental group, two concentrations, 50 mg/mL (the highest concentration at which RPS was completely dissolved) and 0.4 mg/mL (the strongest fluorescence intensity), were selected based on the results of Experimental Example 1 above.
smiles,measurement,setting,value
"Cc1cc2nc3c(=O)[nH]c(=O)nc-3n(C[C@H](O)[C@H](O)[C@H](O)COP(=O)([O-])O)c2cc1C.[Na+] [RPS, riboflavin 5-phosphate sodium]",trend of fluorescence intensity with concentration,"[1]; fluorescence spectrometer, excitation=405 nm/emission=520 nm","increased from 0.01 mg/mL to 0.39 mg/mL, and then decreased again"
same,concentration of the maximum fluorescence intensity,"[1]; fluorescence spectrometer, excitation=405 nm/emission=520 nm, all solvents (DW, gargle, saliva, filtered saliva)",400 µg/mL
same,"fluorescence colour, visual evaluation of images",[1]; shift from high concentration (100 mg/mL) to low concentration,red fluorescence was converted to green fluorescence
same,"difference in fluorescence between solvents, visual evaluation","[1]; white light and blue light images, DW, gargle, saliva, filtered saliva",no difference in fluorescence was observed between solvents
same,highest concentration at which RPS was completely dissolved,[2],50 mg/mL
